T/C data for 23 compounds are collected here from PubChem BioAssay AID248 (DTP/NCI, 2004).

Several values for one entry are separate records, joined by “and”; a condition that tells them apart may be missing. Equal values may be shown once. Inconclusive results and toxic doses are left out.

The experiment deals with L1210 leukemia ip in BDF1 mice, survival T/C. Description: NCI In Vivo Anticancer Drug Screen. Data for tumor model L1210 Leukemia (intraperitoneal) in B6D2F1 (BDF1) mice. The following applies: endpoint: mean survival time, higher = longer survival. The method, boiled down: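 Tumor was transplanted into mice, which were then dosed with test compound or vehicle alone. Survival was recorded for each group, and the treated figure was expressed relative to the control figure.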

Setting [1] is: dose: 100.0 mg/kg/injection, schedule: Q04DX003 (ip), vehicle: saline with Tween-80.
[2] abbreviates: dose: 200.0 mg/kg/injection, schedule: Q04DX003 (ip), vehicle: saline with Tween-80.
Where [3] appears, read: dose: 400.0 mg/kg/injection, schedule: Q04DX003 (ip), vehicle: saline with Tween-80.
Where [4] appears, read: dose: 50.0 mg/kg/injection, schedule: Q01DX001 (ip), vehicle: saline.
Where [5] appears, read: dose: 100.0 mg/kg/injection, schedule: Q01DX001 (ip), vehicle: saline.
Setting [6] is: dose: 200.0 mg/kg/injection, schedule: Q01DX001 (ip), vehicle: saline.
[7] abbreviates: dose: 400.0 mg/kg/injection, schedule: Q01DX001 (ip), vehicle: saline.
[8] abbreviates: dose: 50.0 mg/kg/injection, schedule: Q01DX009 (ip), vehicle: Klucel (hydroxypropylcellulose) (HPC).
Where [9] appears, read: dose: 100.0 mg/kg/injection, schedule: Q04DX003 (ip), vehicle: Klucel (hydroxypropylcellulose) (HPC).
Where [10] appears, read: dose: 200.0 mg/kg/injection, schedule: Q04DX003 (ip), vehicle: Klucel (hydroxypropylcellulose) (HPC).
The mark [11] stands for this setting: dose: 100.0 mg/kg/injection, schedule: Q01DX009 (ip), vehicle: Klucel (hydroxypropylcellulose) (HPC).
Where [12] appears, read: dose: 200.0 mg/kg/injection, schedule: Q01DX009 (ip), vehicle: Klucel (hydroxypropylcellulose) (HPC).

In the case of `COc1c(C)c(C)c(OC)c(CC(=O)O)c1C`, the T/C under setting [1] was 93 % of control, the T/C under setting [2] was 90 % of control and the T/C under setting [3] is 93 % of control.
With `N=C(N)N=Nc1ccc(NN=C(N)N)cc1`, the T/C is 96 % of control (dose: 3.75 mg/kg/injection, schedule: Q01DX Z (ip), vehicle: saline); 103 % of control (dose: 7.5 mg/kg/injection, schedule: Q01DX Z (ip), vehicle: saline); 118 % of control (dose: 30.0 mg/kg/injection, schedule: Q01DX Z (ip), vehicle: saline); 98 % of control and 87 % of control (dose: 60.0 mg/kg/injection, schedule: Q01DX Z (ip), vehicle: saline).
In the case of `CC(=O)OCC1OC(n2c(=S)[nH]c3c(N)ncnc32)C(OC(C)=O)C1OC(C)=O` (centres undefined), the T/C is 98 % of control under setting [4], 98 % of control under setting [5], 95 % of control under setting [6] and 98 % of control under setting [7].
Regarding `N#CCC(N)=S`, the T/C is 120 % of control (dose: 25.0 mg/kg/injection, schedule: Q04DX002 (ip), vehicle: gum acacia) and 109 % of control (dose: 50.0 mg/kg/injection, schedule: Q04DX002 (ip), vehicle: gum acacia).
Consider `CN(C)/N=[N+](\[O-])c1ccccc1`, for which the T/C was 103 % of control (dose: 6.25 mg/kg/injection, schedule: Q01DX009 (ip), vehicle: Klucel (hydroxypropylcellulose) (HPC)); 100 % of control and 105 % of control (dose: 12.5 mg/kg/injection, schedule: Q01DX009 (ip), vehicle: Klucel (hydroxypropylcellulose) (HPC)); 97 % of control and 104 % of control (dose: 25.0 mg/kg/injection, schedule: Q01DX009 (ip), vehicle: Klucel (hydroxypropylcellulose) (HPC)); 96 % of control (dose: 25.0 mg/kg/injection, schedule: Q04DX003 (ip), vehicle: Klucel (hydroxypropylcellulose) (HPC)); 100 % of control and 105 % of control under setting [8]; 95 % of control and 108 % of control (dose: 50.0 mg/kg/injection, schedule: Q04DX003 (ip), vehicle: Klucel (hydroxypropylcellulose) (HPC)). Besides, the T/C under setting [9] was 95 % of control and 105 % of control.
Turning to `O=C(CI)Nc1ccc(NC(=O)CI)cc1`, the T/C under setting [9] is 90 % of control and the T/C under setting [10] was 95 % of control.
As to `ClCC1COC(c2ccccc2)O1` (centres undefined), the T/C runs as follows: (dose: 5.8 mg/kg/injection, schedule: Q01DX Z (ip), vehicle: methylcellulose (MC)) 112 % of control; (dose: 8.8 mg/kg/injection, schedule: Q01DX Z (ip), vehicle: methylcellulose (MC)) 102 % of control; (dose: 13.3 mg/kg/injection, schedule: Q01DX Z (ip), vehicle: methylcellulose (MC)) 115 % of control; (dose: 20.0 mg/kg/injection, schedule: Q01DX Z (ip), vehicle: methylcellulose (MC)) 97 % of control.
Regarding `CC1Oc2ccccc2-c2c(-c3ccccc3)nnc(-c3ccccc3)c21` (centres undefined), the T/C reads like this: (dose: 100.0 mg/kg/injection, schedule: Q04DX003 (ip), vehicle: gum acacia) 95 % of control; (dose: 200.0 mg/kg/injection, schedule: Q04DX003 (ip), vehicle: gum acacia) 102 % of control; (dose: 400.0 mg/kg/injection, schedule: Q04DX003 (ip), vehicle: gum acacia) 98 % of control.
With `COC(=O)c1ccccc1NCCO`, the T/C under setting [5] was 101 % of control, the T/C under setting [6] was 107 % of control and the T/C under setting [7] was 101 % of control.
Consider `OCC1OC(n2c(Cl)nc3cc(Cl)c(Cl)cc32)C(O)C1O` (centres undefined), for which the T/C was 96 % of control (dose: 100.0 mg/kg/injection, schedule: Q01DX005 (ip), vehicle: saline) and 96 % of control (dose: 200.0 mg/kg/injection, schedule: Q01DX005 (ip), vehicle: saline).
`O=C1c2ccccc2C(=O)C2C3C=CC(C3)C12` (centres undefined): the T/C (dose: 50.0 mg/kg/injection, schedule: Q01DX001 (ip), vehicle: carboxymethylcellulose (CMC)) is 93 % of control; the T/C (dose: 100.0 mg/kg/injection, schedule: Q01DX001 (ip), vehicle: carboxymethylcellulose (CMC)) is 100 % of control; the T/C (dose: 200.0 mg/kg/injection, schedule: Q01DX001 (ip), vehicle: carboxymethylcellulose (CMC)) was 100 % of control; the T/C (dose: 400.0 mg/kg/injection, schedule: Q01DX001 (ip), vehicle: carboxymethylcellulose (CMC)) was 103 % of control.
As for `CCCC[N+]12CC=C3COC(=O)C(C)(O)C(C)(O)C(C)C(=O)OC(CC1)C32` (centres undefined), the T/C was 92 % of control under setting [8], 95 % of control under setting [11] and 100 % of control under setting [12].
With `CC(=O)C(C(N)=O)C(c1ccc2c(c1)OCO2)C(C(C)=O)C(=O)NCc1ccccc1` (centres undefined), the T/C is, setting by setting: (dose: 25.6 mg/kg/injection, schedule: Q04DX002 (ip), vehicle: saline with Tween-80) 98 % of control; (dose: 64.0 mg/kg/injection, schedule: Q04DX002 (ip), vehicle: saline with Tween-80) 95 % of control; under setting [1], 87 % of control; (dose: 160.0 mg/kg/injection, schedule: Q04DX002 (ip), vehicle: saline with Tween-80) 91 % of control; under setting [2], 90 % of control; (dose: 400.0 mg/kg/injection, schedule: Q04DX002 (ip), vehicle: saline with Tween-80) 98 % of control. Also, the T/C under setting [3] is 91 % of control.
Consider `O=C(O)c1ccccc1C(=O)Nc1ccc(O)cc1`, for which the T/C (dose: 75.0 mg/kg/injection, schedule: Q01DX009 (ip), vehicle: saline) is 102 % of control; the T/C (dose: 150.0 mg/kg/injection, schedule: Q01DX009 (ip), vehicle: saline) was 100 % of control; the T/C (dose: 300.0 mg/kg/injection, schedule: Q01DX009 (ip), vehicle: saline) is 117 % of control.
For `CC(=O)c1ccc(NCc2cnc3nc(N)nc(N)c3n2)cc1`, the T/C reads like this: (dose: 20.0 mg/kg/injection, schedule: Q01DX009 (ip), vehicle: Klucel (hydroxypropylcellulose) (HPC)) 102 % of control; (dose: 40.0 mg/kg/injection, schedule: Q01DX009 (ip), vehicle: Klucel (hydroxypropylcellulose) (HPC)) 105 % of control; (dose: 80.0 mg/kg/injection, schedule: Q01DX009 (ip), vehicle: Klucel (hydroxypropylcellulose) (HPC)) 105 % of control.
Regarding `N#CCN1CCCCC1`, the T/C was 115 % of control (dose: 25.0 mg/kg/injection, schedule: Q01DX009 (ip), vehicle: saline) and 112 % of control (dose: 50.0 mg/kg/injection, schedule: Q01DX009 (ip), vehicle: saline).
`CC1=Nc2ccccc2/C1=C/c1c(O)[nH]c(=O)[nH]c1=O`: the T/C runs as follows: (dose: 37.5 mg/kg/injection, schedule: Q01DX Z (ip), vehicle: carboxymethylcellulose (CMC)) 103 % of control; (dose: 75.0 mg/kg/injection, schedule: Q01DX Z (ip), vehicle: carboxymethylcellulose (CMC)) 103 % of control; (dose: 150.0 mg/kg/injection, schedule: Q01DX Z (ip), vehicle: carboxymethylcellulose (CMC)) 100 % of control; (dose: 300.0 mg/kg/injection, schedule: Q01DX Z (ip), vehicle: carboxymethylcellulose (CMC)) 103 % of control.
As for `CCC(C)NNCCO` (centres undefined), the T/C was 97 % of control under setting [4], 103 % of control under setting [5] and 100 % of control under setting [6].
Turning to `COc1ccccc1NC(=O)Nc1cc(C)ccc1C`, the T/C by setting is: under setting [11], 88 % of control; under setting [9], 90 % of control; under setting [12], 92 % of control; under setting [10], 95 % of control; (dose: 400.0 mg/kg/injection, schedule: Q01DX009 (ip), vehicle: Klucel (hydroxypropylcellulose) (HPC)) 88 % of control; (dose: 400.0 mg/kg/injection, schedule: Q04DX003 (ip), vehicle: Klucel (hydroxypropylcellulose) (HPC)) 88 % of control.
As to `NC(=S)N/N=C\c1nccc2c(N)cccc12`, the T/C is, setting by setting: (dose: 6.25 mg/kg/injection, schedule: Q01DX009 (ip), vehicle: saline with Tween-80) 122 % of control; (dose: 50.0 mg/kg/injection, schedule: Q01DX009 (ip), vehicle: saline with Tween-80) 187 % of control.
For `C[N+]1=C(C(=O)c2ccc(O)cc2)c2ccc(O)cc2CC1`, the T/C runs as follows: under setting [4], 107 % of control; under setting [5], 106 % of control; under setting [6], 119 % of control.
In the case of `O=[N+]([O-])c1ccc(C2=NCCS2)cc1`, the T/C reads like this: (dose: 87.0 mg/kg/injection, schedule: Q04DX003 (ip), vehicle: Klucel (hydroxypropylcellulose) (HPC)) 102 % of control; (dose: 175.0 mg/kg/injection, schedule: Q04DX003 (ip), vehicle: Klucel (hydroxypropylcellulose) (HPC)) 102 % of control; (dose: 350.0 mg/kg/injection, schedule: Q04DX003 (ip), vehicle: Klucel (hydroxypropylcellulose) (HPC)) 102 % of control.
Take `O=C1CC2CCC(C1)N2CC1COc2ccccc2O1` (centres undefined): the T/C is, setting by setting: under setting [5], 100 % of control; under setting [6], 120 % of control.
